Where two headings read alike, the source gives them in different places.
Columns and labels:
[1] = tested on: A2780 ovarian carcinoma cells; test: In vitro cytotoxicity testing (MTT assay), A2780; type: cell-based, human
Method: (§1) All cell lines were grown as adherent monolayers at 37°C and 5% CO2 in a humidified atmosphere.
(§2) The MTT assay was used to determine the cell viability; MTT = 3-(4,5-dimethylthiazol-2-yl)-2,5-diphenyltetrazolium bromide. A concentration of the formed dye was evaluated spectrophotometrically at 540 nm (TECAN, Schoeller Instruments LLC).
(§3) The data were expressed as the percentage of viability, where 100% and 0% represents the treatments with negative and positive controls, respectively. The data from the cancer cells were acquired from three independent experiments (conducted in triplicate) using cells from different passages. The resulting IC50 values (μM) were calculated from viability curves and the results are presented as arithmetic mean±SD.

HOS osteosarcoma cells = test: In vitro cytotoxicity testing (MTT assay), HOS; type: cell-based, human; details: for IC50: 24 h drug exposure, no recovery, MTT, read-out: IC50±SD, HOS
Method: (§4) A2780 ovarian carcinoma, A2780R cisplatin-resistant ovarian carcinoma, HOS osteosarcoma, G361 malignant melanoma, MCF7 breast carcinoma, A549 lung carcinoma, HeLa cervix carcinoma, 22Rv1 prostate carcinoma and Caco-2 colorectal carcinoma human cancer cell lines were purchased from the European Collection of Cell Cultures (ECACC), while the human non-cancerous hepatocytes (Hep) were supplied by Biopredic Intl. The cell lines were cultured, according to the suppliers`instructions, in RPMI-1640 medium supplemented with 10% of fetal calf serum, 1% of 2 mM glutamine, and 1% penicillin/streptomycin. All cell lines were grown as adherent monolayers at 37°C and 5% CO2 in a humidified atmosphere.
(§5) The cells were seeded to 96-well culture plates, pre-incubated in drug-free media at 37°C for 24 h and treated typically with the 0.01–50.0 μM solutions, prepared from the stock solutions by dilution with medium, for 24 h at 37°C. […] In parallel with compounds 1–8 and the reference drugs, the cells were also treated with vehicle (0.1% DMF in medium; negative control) and Triton X-100 (1%; positive control) to assess the minimal and maximal cell damage, respectively. The MTT assay was used to determine the cell viability; MTT = 3-(4,5-dimethylthiazol-2-yl)-2,5-diphenyltetrazolium bromide. A concentration of the formed dye was evaluated spectrophotometrically at 540 nm (TECAN, Schoeller Instruments LLC).
as §3

[2] = tested on: Caco-2 colorectal carcinoma cells; test: In vitro cytotoxicity testing (MTT assay), Caco-2; type: cell-based, human; details: 24 h drug exposure, no recovery, MTT; read-out: IC50±SD, Caco-2
Method: as §1, §2, §3

[3] = tested on: human non-cancerous hepatocytes (Hep); test: In vitro cytotoxicity testing (MTT assay), hepatocytes; type: cell-based; details: 24 h drug exposure, no recovery
Method: as §4, §5, §3

[4] = tested on: G361 malignant melanoma cells; test: In vitro cytotoxicity testing (MTT assay), G361; type: cell-based, human; details: 24 h drug exposure, no recovery, read-out: IC50±SD, G361
Method: as §4, §5, §3

[5] = tested on: A2780R cisplatin-resistant ovarian carcinoma cells; test: In vitro cytotoxicity testing (MTT assay), A2780R; type: cell-based, human; details: for resistance factor (RF), IC50(A2780R)/IC50(A2780): 24 h IC50 values; for IC50: 24 h drug exposure, no recovery, MTT, read-out: IC50±SD, A2780R
Method: as §1, §2, §3

[6] = tested on: HeLa cervix carcinoma cells; test: In vitro cytotoxicity testing (MTT assay), HeLa; type: cell-based, human; details: 24 h drug exposure, no recovery, read-out: IC50±SD, HeLa
Method: as §4, §5, §3

[7] = tested on: 22Rv1 prostate carcinoma cells; test: In vitro cytotoxicity testing (MTT assay), 22Rv1; type: cell-based, human; details: 24 h drug exposure, no recovery, read-out: IC50±SD, 22Rv1
Method: as §4, §5, §3

[8] = tested on: A549 lung carcinoma cells; test: In vitro cytotoxicity testing (MTT assay), A549; type: cell-based, human; details: 24 h drug exposure, no recovery, read-out: IC50±SD, A549
Method: as §4, §5, §3

[9] = tested on: MCF7 breast carcinoma cells; test: In vitro cytotoxicity testing (MTT assay), MCF7; type: cell-based, human; details: 24 h drug exposure, no recovery, read-out: IC50±SD, MCF7
Method: as §4, §5, §3

[10] = tested on: L1210 mouse lymphocytic leukaemia cells; test: In vivo antitumour activity testing, L1210 lymphocytic leukaemia model; design: species or system mice; details: dose equimolar to cisplatin 2 mg/kg, i.p.
Method: The experimental animals used for in vivo antitumour testing were female DBA/2 SPF mice obtained from Charles Rivers Laboratories. The animals were housed in the Sealsafe NEXT—IVC Blue Line Housing System (Tecniplast, Italy) to ensure the best possible experimental conditions and eliminate the risk of possible intergroup cross-contamination, and kept in Plexiglas cages at constant temperature (22±1°C) and relative humidity of 55±5% for one-week adaptation period before the start of the experiment. All experimental procedures were performed according to the National Institute of Health (NIH) Guide for the Care and Use of Laboratory Animals. The protocol was approved by the Expert Committee on the Protection of Animals Against Cruelty at the University of Veterinary and Pharmaceutical Sciences Brno (Permit Number: 71/2013). The number of pharmacological interventions was limited to the necessary minimum in order to minimize the suffering of animals, which were observed regularly for the symptoms connected with the tumour progression. […] No animals had to be sacrificed due to the above mentioned criteria of humane treatment and no post-application deaths within the 2 hours after the application were observed during the experiment. […] The animal tissues for the ex vivo experiments and histological evaluations were taken post mortem, in case of surviving animals immediately after they were sacrificed by the lethal dose of carbon dioxide inhalation, immediately followed by the cervical dislocation.
The animals were monitored several times a day for the signs of tumour progression and distress development.

p53 = test: Ex vivo Western blot of tumour tissues, p53; type: in vivo, mice; details: pooled tumour samples
Method: (§6) Frozen tumour samples were homogenized by a bench blender IKA DI25 (IKA-Werke, Germany) in the presence of a lysis buffer [cOmplete Protease Inhibitor Cocktail (Roche, Germany), 50 mM Tris-HCl pH 7.5, 1 mM EGTA, 1 mM EDTA, 1 mM sodium orthovanadate, 50 mM sodium fluoride, 5 mM sodium pyrophosphate, 270 mM sucrose, 0.5% (v/v) Triton X-100]. Subsequently, the blended samples were centrifuged at 9.000 g at 4°C for 15 min. The supernatants were collected and the protein concentration was measured by the Brandford’s method using the Brandford reagent (Amresco, USA) according to the manufacturer’s manual. The measured samples were stored at -80°C for the following experiments.
(§7) The expression of caspase 3, MCL-1, p53, and β-actin as loading control were evaluated by Western blot analysis and immunodetection. Lysates were mixed with a denaturing loading dye [250 mM Tris-HCl pH 6.8, 5% (v/v) β-mercaptoethanol, 10% (w/v) sodium dodecyl sulfate, 30% (v/v) glycerol, 0.04% (w/v) bromophenol blue], heated for 5 min at 70°C. To eliminate intra-species variability, and to obtain the same amount of proteins from all experimental groups, all samples from one group of animals were pooled together and loaded onto a 15% polyacrylamide denaturing gel. The final protein amount was 50 μg per well. After protein separation in the gel, they were transferred on the Immun-Blot polyvinylidene difluoride membrane 0.2 μm (Bio-Rad, USA). Then, the membrane was blocked by 5% (w/v) BSA in TBST [10 mM Tris-HCl pH 7.5, 150 mM NaCl, 0.1% (v/v) Tween-20]. […] HRP was detected by Clarity Western ECL Substrate (Bio-Rad, USA) using chemiluminescent documentation system Syngene PXi-4 (UK).

[11] = tested on: spleen, renal tissue and tumour tissues of L1210 leukaemia-bearing mice; test: Histological observations (light microscopy, semi-quantitative); details: relative scale 0 to 4
Excerpt: Randomly selected paraffin block preparations were stained by standard hematoxylin and eosin stain for light microscopic evaluation. Due to high cellularity, the semi-quantitative method was used for the evaluation of necrosis in well-circumcised and diffuse tumour samples and PMN cells infiltration in normal tissues as an indirect sign of toxicity to healthy tissues. The evaluation of necrotic processes and infiltration by PMN cells was semi-quantitative, based on the percentage of necrotic areas and/or infiltrated area in the view-field of at least three different samples.

MCL-1L (37 kDa) = test: Ex vivo Western blot of tumour tissues, MCL-1L; type: in vivo, mice; details: pooled tumour samples
Method: as §6, §7

[12] = tested on: caspase 3 (Cas-3), active form p17; test: Ex vivo Western blot of tumour tissues, cleaved caspase 3; type: in vivo, mice; details: pooled tumour samples
Method: The expression of caspase 3, MCL-1, p53, and β-actin as loading control were evaluated by Western blot analysis and immunodetection. Lysates were mixed with a denaturing loading dye [250 mM Tris-HCl pH 6.8, 5% (v/v) β-mercaptoethanol, 10% (w/v) sodium dodecyl sulfate, 30% (v/v) glycerol, 0.04% (w/v) bromophenol blue], heated for 5 min at 70°C. […] The final protein amount was 50 μg per well. After protein separation in the gel, they were transferred on the Immun-Blot polyvinylidene difluoride membrane 0.2 μm (Bio-Rad, USA). Then, the membrane was blocked by 5% (w/v) BSA in TBST [10 mM Tris-HCl pH 7.5, 150 mM NaCl, 0.1% (v/v) Tween-20]. […] HRP was detected by Clarity Western ECL Substrate (Bio-Rad, USA) using chemiluminescent documentation system Syngene PXi-4 (UK).

[13] = tested on: cisplatin-resistant HCT116 colon cancer cell line; design: method as in PMID 26226326; details: cited from earlier work
[14] = tested on: cisplatin-sensitive HCT116 colon cancer cell line; design: method as in PMID 26226326; details: cited from earlier work
A2780 cells = test: Cellular accumulation of platinum (ICP-MS); type: cell-based, human; details: 24 h treatment at IC50 concentration
Method: The A2780 cells were seeded in 6-well culture plates (1×10^6 cells per well) and incubated overnight (37°C and 5% CO2 in a humidified incubator). […] The cells were washed with PBS (2 × 2 mL) after 24 h treatment, harvested by trypsin treatment, collected and centrifuged in PBS. The supernatants were discarded after centrifugation and pellets were digested in 500 μL of nitric acid (3 min at 150°C) using a microwave system Monowave300 (Anton Paar). Solutions were diluted with 4.5 mL of water and the platinum content was determined by ICP-MS. The obtained values were corrected for adsorption effects. The experiments were conducted in triplicate and the results are presented as arithmetic mean±SD.

[15] = Hydrophobicity studies (logP determination), octanol/water, ICP-MS; type: physicochemical; details: octanol/water (0.2 M KI)
Method: Complexes 4 and 6 (1 mmol) were ultrasonicated for 15 min in 10 mL of OSW, centrifuged and supernatants were collected. Aliquots (5 mL) of the obtained OSW solutions of complexes 4 and 6 were added to WSO (5 mL) and shaken for 2 h at ambient temperature. After that, the mixtures were centrifuged and aqueous layer was separated carefully. The platinum concentration was determined from OSW aliquots taken before ([Pt]OSWb) and after ([Pt]OSWa) partition by ICP-MS (ICP-MS spectrometer 7700x, Agilent) with the obtained values corrected for the adsorption effects. logP = log([Pt]WSO/[Pt]OSWa) equation was used for the partition coefficients calculation; [Pt]WSO = [Pt]OSWb−[Pt]OSWa. The experiments were conducted in triplicate.

[16] = 24 h drug exposure, no recovery, MTT, read-out: IC50±SD, A2780

Compound | IC50 [1, 16] | IC50 (HOS osteosarcoma cells) | IC50 [2] | IC50 [3] | IC50 [4] | resistance factor (RF), IC50(A2780R)/IC50(A2780) [5] | IC50 [5] | IC50 [6] | IC50 [7] | IC50 [8] | IC50 [9] | further results
Clc1c[nH]c2ncccc12.Clc1c[nH]c2ncccc12.[I][Pt][I] [Complex 2, cis-[Pt(3Claza)2I2]] | 3.7 ± 0.4 µM | 1.3 ± 0.8 µM | 3.1 ± 0.2 µM | 5.9 µM | 2.3 ± 1 µM | 0.89 | 3.3 ± 0.5 µM | 4.8 ± 0.4 µM | 4.8 ± 2.4 µM | 6.4 ± 1.4 µM | 1.5 ± 0.4 µM | 
Brc1cnc2[nH]ccc2c1.Brc1cnc2[nH]ccc2c1.[I-].[I-].[Pt+2] [Complex 7, cis-[Pt(5Braza)2I2]] | 3.4 ± 0.2 µM | 1.4 ± 1.1 µM | 3.6 ± 0.2 µM | 3.8 µM | 3.4 ± 0.3 µM | 1.03 | 3.5 ± 0.5 µM | 5.4 ± 1.2 µM | 5.1 ± 0.8 µM | 7.3 ± 1.6 µM | 1.6 ± 0.8 µM | 
Brc1c[nH]c2ncccc12.Brc1c[nH]c2ncccc12.[I][Pt][I] [Complex 3, cis-[Pt(3Braza)2I2]] | 2.8 ± 0.3 µM | 2.2 ± 1.2 µM | 3 ± 0.1 µM | 3.9 µM | 3.1 ± 0.2 µM | 1.14 | 3.2 ± 0.2 µM | 4.7 ± 0.8 µM | 4.2 ± 1.2 µM | 8.8 ± 2.2 µM | 1.9 ± 0.5 µM | 
Clc1ccnc2[nH]ccc12.Clc1ccnc2[nH]ccc12.[I][Pt][I] [Complex 5, cis-[Pt(4Claza)2I2]] | 3.1 ± 0.1 µM | 0.5 ± 0.2 µM | 2.4 ± 0.7 µM | 4.2 µM | 3.2 ± 0.2 µM | 1.10 | 3.4 ± 0.2 µM | 3.8 ± 0.3 µM | 4.2 ± 0.1 µM | 4.7 ± 0.3 µM | 1.5 ± 0.5 µM | IC50 ([1]; 6 h exposure, read-out: IC50, A2780, time-dependent cytotoxicity): 11 ± 2.9 µM; tolerability / signs of toxicity (e.g. weight loss) [10]: well-tolerated; percentage of mean survival time T/C [10]: 100%; mean survival time ± SD ([10]; 10 days after implantation, control 17.4±1.6 days): 17.3 ± 2.3 days; times more potent than cisplatin (HOS osteosarcoma cells; HOS cell line): ≤ 47 times; p53 level in tumour tissue (p53): did not affect; Areas of necrosis in tumour tissues [11]: 2 (2 = up to 50%); Infiltration of renal tissues (PMN cells) [11]: 1 (1 = up to 25%); Infiltration of spleen (PMN cells) [11]: 3 (3 = up to 75%); MCL-1L level in tumour tissue (MCL-1L (37 kDa)): negligible effect; level of active form of Cas-3 in tumour tissue [12]: has not been observed
N.N.[I-].[I-].[Pt+2] [cis-[PtI2(NH3)2]] |  |  |  |  |  |  |  |  |  |  |  | IC50 [13]: 4.2 µM; IC50 [14]: 13.4 µM
Ic1c[nH]c2c1ccc[n+]2[Pt-2]([I])([I])[n+]1cccc2c(I)c[nH]c21 [Complex 4, cis-[PtI2(3Iaza)2]] | 2.3 ± 1.1 µM | 2.8 ± 1 µM | 3.3 ± 0.1 µM | 11.8 µM | 1.6 ± 0.7 µM | 1.13 | 2.6 ± 0.8 µM | 6.2 ± 0.7 µM | 4.5 ± 1.6 µM | 9.8 ± 1.3 µM | 1.8 ± 0.3 µM | cellular accumulation (A2780 cells): 354±63 pmol Pt/10^6 A2780 cells; logP [15]: 0.41
[I][Pt][I].c1cnc2[nH]ccc2c1.c1cnc2[nH]ccc2c1 [Complex 1, cis-[Pt(aza)2I2]] | 3.5 ± 0.7 µM | 0.8 ± 0.4 µM | 3.3 ± 0.2 µM | 3.9 µM | 2.9 ± 0.6 µM | 0.94 | 3.3 ± 0.3 µM | 7 ± 0.6 µM | 4.6 ± 1.2 µM | 12.3 ± 1.1 µM | 1.7 ± 0.8 µM | 
